Common to all, as to assay: relative viability (nuclei count vs DMSO), 5 days (fraction); higher = more cells survive
Compound in the assay “FH535 + Dasatinib”: CC1=C(C=CC(=C1)[N+](=O)[O-])NS(=O)(=O)C2=C(C=CC(=C2)Cl)Cl [FH535] + Cc1nc(Nc2ncc(C(=O)Nc3c(C)cccc3Cl)s2)cc(N2CCN(CCO)CC2)n1 [Dasatinib] (partner 0.075 µM)
The method, boiled down:
(§1)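 Relative viability divides the nuclei count in treated wells by that in vehicle wells. Lung cancer cell lines were seeded in 1536-well plates, dosed by pin tool the next day, and fixed and stained after 5 days in one step with final 0.05% Triton X-100, 1% formaldehyde and 1 ug/ml Hoechst. Dosing was a single drug or a fixed anchor-drug dose plus five library-drug doses (not always all listed) in √10 steps, and values are medians of duplicate plates imaged at 4×.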

Compound in the assay “FH535 + Lapatinib”: CC1=C(C=CC(=C1)[N+](=O)[O-])NS(=O)(=O)C2=C(C=CC(=C2)Cl)Cl [FH535] + CS(=O)(=O)CCNCc1ccc(-c2ccc3ncnc(Nc4ccc(OCc5cccc(F)c5)c(Cl)c4)c3c2)o1 [Lapatinib] (partner 2 µM)
The method, boiled down:
as §1

Compound in the assay “FH535 + Navitoclax”: CC1=C(C=CC(=C1)[N+](=O)[O-])NS(=O)(=O)C2=C(C=CC(=C2)Cl)Cl [FH535] + CC1(C)CCC(c2ccc(Cl)cc2)=C(CN2CCN(c3ccc(C(=O)NS(=O)(=O)c4ccc(N[C@H](CCN5CCOCC5)CSc5ccccc5)c(S(=O)(=O)C(F)(F)F)c4)cc3)CC2)C1 [Navitoclax] (partner 0.5 µM)
The method, boiled down:
as §1

Compound in the assay “FH535 + Trametinib”: CC1=C(C=CC(=C1)[N+](=O)[O-])NS(=O)(=O)C2=C(C=CC(=C2)Cl)Cl [FH535] + CC(=O)Nc1cccc(-n2c(=O)n(C3CC3)c(=O)c3c(Nc4ccc(I)cc4F)n(C)c(=O)c(C)c32)c1 [Trametinib] (partner 0.02 µM)
In short, it runs like this: as §1

Compound in the assay “FH535 + Foretinib”: CC1=C(C=CC(=C1)[N+](=O)[O-])NS(=O)(=O)C2=C(C=CC(=C2)Cl)Cl [FH535] + COc1cc2c(Oc3ccc(NC(=O)C4(C(=O)Nc5ccc(F)cc5)CC4)cc3F)ccnc2cc1OCCCN1CCOCC1 [Foretinib] (partner 0.25 µM)
The method, boiled down:
as §1

4 cell lines from the supplement of paper PMC10307832 can be followed below.

In the case of NCI-H1944, the relative viability was found to be 0.179 with FH535 + Dasatinib (first compound 0.04 µM); 0.209 in the assay with FH535 + Dasatinib (first compound 0.1265 µM); 0.222 with FH535 + Dasatinib (first compound 0.4 µM); 0.204 in the assay with FH535 + Dasatinib (first compound 1.265 µM); 0.777 with FH535 + Lapatinib (first compound 0.1265 µM); 0.668 with FH535 + Lapatinib (first compound 0.4 µM). Moreover, the relative viability with FH535 + Lapatinib (first compound 1.265 µM) came out at 0.754; in the assay with FH535 + Navitoclax (first compound 0.1265 µM), 1.01; with FH535 + Navitoclax (first compound 0.4 µM) it was 0.975; in the assay with FH535 + Navitoclax (first compound 1.265 µM) it was 0.924; in the assay with FH535 + Trametinib (first compound 0.04 µM) it was 0.405; with FH535 + Trametinib (first compound 0.1265 µM), 0.42. The relative viability in the assay with FH535 + Trametinib (first compound 0.4 µM) worked out at 0.398; with FH535 + Trametinib (first compound 1.265 µM), 0.325; in the assay with FH535 + Foretinib (first compound 0.04 µM) it was 0.855; with FH535 + Foretinib (first compound 0.1265 µM) it was 0.922; with FH535 + Foretinib (first compound 0.4 µM), 0.882; in the assay with FH535 + Foretinib (first compound 1.265 µM), 0.857.

Consider NCI-H1975, for which the relative viability was found to be 0.304 in the assay with FH535 + Dasatinib (first compound 0.04 µM); 0.341 in the assay with FH535 + Dasatinib (first compound 0.1265 µM); 0.263 with FH535 + Dasatinib (first compound 0.4 µM); 0.294 in the assay with FH535 + Dasatinib (first compound 1.265 µM); 0.863 in the assay with FH535 + Lapatinib (first compound 0.04 µM); 0.748 with FH535 + Lapatinib (first compound 0.1265 µM). The relative viability in the assay with FH535 + Lapatinib (first compound 0.4 µM) was 0.715; with FH535 + Lapatinib (first compound 1.265 µM), 0.73; in the assay with FH535 + Navitoclax (first compound 0.04 µM), 1.16; with FH535 + Navitoclax (first compound 0.1265 µM), 1.32; with FH535 + Navitoclax (first compound 0.4 µM), 0.91; with FH535 + Navitoclax (first compound 1.265 µM), 0.934. Besides, the relative viability was determined as 0.329 in the assay with FH535 + Trametinib (first compound 0.04 µM); 0.232 with FH535 + Trametinib (first compound 0.1265 µM); 0.287 with FH535 + Trametinib (first compound 0.4 µM); 0.329 with FH535 + Trametinib (first compound 1.265 µM); 0.889 with FH535 + Foretinib (first compound 0.04 µM); 0.973 in the assay with FH535 + Foretinib (first compound 0.1265 µM). The relative viability with FH535 + Foretinib (first compound 0.4 µM) amounted to 0.936; in the assay with FH535 + Foretinib (first compound 1.265 µM), 0.789.

As for NCI-H1993, the relative viability with FH535 + Dasatinib (first compound 0.04 µM) stood at 0.526; in the assay with FH535 + Dasatinib (first compound 0.1265 µM), 0.597; in the assay with FH535 + Dasatinib (first compound 0.4 µM) it was 0.474; with FH535 + Dasatinib (first compound 1.265 µM), 0.427; with FH535 + Lapatinib (first compound 0.04 µM) it was 0.676; in the assay with FH535 + Lapatinib (first compound 0.1265 µM), 0.781. Also, the relative viability in the assay with FH535 + Lapatinib (first compound 0.4 µM) stood at 0.729; in the assay with FH535 + Lapatinib (first compound 1.265 µM), 0.714; in the assay with FH535 + Navitoclax (first compound 0.04 µM), 0.946; with FH535 + Navitoclax (first compound 0.1265 µM) it was 1.01; in the assay with FH535 + Navitoclax (first compound 0.4 µM) it was 0.838; in the assay with FH535 + Navitoclax (first compound 1.265 µM), 0.695. For the same cell line, the relative viability with FH535 + Trametinib (first compound 0.04 µM) is 0.57; in the assay with FH535 + Trametinib (first compound 0.1265 µM), 0.566; with FH535 + Trametinib (first compound 0.4 µM), 0.496; in the assay with FH535 + Trametinib (first compound 1.265 µM), 0.52; in the assay with FH535 + Foretinib (first compound 0.04 µM), 0.76; in the assay with FH535 + Foretinib (first compound 0.1265 µM), 0.753. In addition, the relative viability with FH535 + Foretinib (first compound 0.4 µM) is 0.741; with FH535 + Foretinib (first compound 1.265 µM) it was 0.575.

In the case of NCI-H2009, the relative viability with FH535 + Dasatinib (first compound 0.04 µM) was 0.256; with FH535 + Dasatinib (first compound 0.1265 µM), 0.307; with FH535 + Dasatinib (first compound 0.4 µM), 0.269; with FH535 + Dasatinib (first compound 1.265 µM) it was 0.277; in the assay with FH535 + Lapatinib (first compound 0.04 µM), 0.82; with FH535 + Lapatinib (first compound 0.1265 µM), 0.859. For the same cell line, the relative viability with FH535 + Lapatinib (first compound 0.4 µM) was found to be 0.853; with FH535 + Lapatinib (first compound 1.265 µM), 0.656; with FH535 + Navitoclax (first compound 0.04 µM) it was 1.11; with FH535 + Navitoclax (first compound 0.1265 µM), 1.13; with FH535 + Navitoclax (first compound 0.4 µM), 1.09; with FH535 + Navitoclax (first compound 1.265 µM), 0.847. In addition, the relative viability in the assay with FH535 + Trametinib (first compound 0.04 µM) came out at 0.306; with FH535 + Trametinib (first compound 0.1265 µM), 0.316; in the assay with FH535 + Trametinib (first compound 0.4 µM) it was 0.251; with FH535 + Trametinib (first compound 1.265 µM), 0.24; in the assay with FH535 + Foretinib (first compound 0.04 µM), 1.27; with FH535 + Foretinib (first compound 0.1265 µM) it was 1.22. The values for the relative viability with FH535 + Foretinib (first compound 0.4 µM) and with FH535 + Foretinib (first compound 1.265 µM) were 1.18 and 0.929, respectively.
